The values below come from ChEMBL document CHEMBL1135188, “Synthesis and anti-tumor activity of novel combretastatins: combretocyclopentenones and related analogues” (Bioorg Med Chem Lett, 2002).

Converted amounts (≈) assume the structure as drawn. Where only a bound is given, the exact number is not on record here.

The test system of one assay is B16. Briefly: Cytotoxicity expressed as inhibitory concentration required to reduce the cell growth of B16 murine melanoma cell line. In kind it is functional, cell-based. Conditions: Mus musculus.
The next assay concerns HCT-116. Briefly: Cytotoxicity expressed as inhibitory concentration required to reduce the cell growth of HCT116 human colon carcinoma cell line. In kind it is functional, cell-based.
In the next assay the test system is A-431. Nature of the assay: Cytotoxicity expressed as inhibitory concentration required to reduce the cell growth of A431 human epidermal carcinoma cell line. In kind it is functional, cell-based.
Assay [1] in a line: Inhibition ratio expressed as percentage showing significant anti-tumor activity in BDF1 mice bearing Lewis lung carcinoma cells was determined. In kind it is functional.

On to `COc1ccc(C2=C(c3cc(OC)c(OC)c(OC)c3)CCC2)cc1`, for which the IC50 in the assay with B16 and in the assay on HCT-116 was over 1 mg/L throughout.

In the case of `COc1ccc(C2=C(c3cc(OC)c(OC)c(OC)c3)C(=O)CC2)cc1`, the concentration for half-maximal inhibition (IC50) with B16 was determined as 0.015 mg/L (≈ 0.0423 µM); in the assay with HCT-116 it was 0.021 mg/L (≈ 0.0593 µM); in the assay with A-431, 0.021 mg/L (≈ 0.0593 µM).

As for `COc1ccc(C2=C(c3cc(OC)c(OC)c(OC)c3)C(=O)C=C2)cc1`, the IC50 in the assay on B16 is 0.011 mg/L (≈ 0.0312 µM); in the assay with HCT-116, 0.013 mg/L (≈ 0.0369 µM).

With `COc1ccc(C2=C(c3cc(OC)c(OC)c(OC)c3)C(=O)CC2)cc1O`, the IC50 in the assay on B16 is 0.013 mg/L (≈ 0.0351 µM); with HCT-116, 0.012 mg/L (≈ 0.0324 µM); with A-431, 0.009 mg/L (≈ 0.0243 µM).

On to `COc1ccc(C2=C(c3cc(OC)c(OC)c(OC)c3)C(O)CC2)cc1` (configuration not stated), for which the IC50 worked out at 0.039 mg/L (≈ 0.109 µM) in the assay on B16 and 0.045 mg/L (≈ 0.126 µM) with HCT-116.

`COc1cc(C2=C(c3ccc4ccccc4c3)CCC2=O)cc(OC)c1OC`: the IC50 stood at 0.029 mg/L (≈ 0.0774 µM) with B16, 0.031 mg/L (≈ 0.0828 µM) in the assay on HCT-116 and 0.034 mg/L (≈ 0.0908 µM) in the assay on A-431.

Turning to `COc1ccc(C2=C(c3cc(OC)c(OC)c(OC)c3)C(=O)CC2)cc1N`, the values for the IC50 in the assay with B16, with HCT-116 and with A-431 were 0.008 mg/L (≈ 0.0217 µM), 0.008 mg/L (≈ 0.0217 µM) and 0.009 mg/L (≈ 0.0244 µM), respectively. In addition, in assay [1], the Ratio came out at 59.

For `COc1ccc(C2=C(c3cc(OC)c(OC)c(OC)c3)COC2)cc1`, the IC50 in the assay on B16 and in the assay with HCT-116 was over 1 mg/L in each case.

In turn, `COc1cccc2c1C(=O)c1c(O)c3c(c(O)c1C2=O)C[C@@](O)(C(=O)CO)C[C@@H]3O[C@H]1C[C@H](N)[C@H](O)[C@H](C)O1` [DOXORUBICIN] had an IC50 in the assay with A-431 of 0.117 mg/L (≈ 0.215 µM).
